14 molecules from patent US8871753B2, “Macrocyclic compounds and their use as kinase inhibitors” (Incyte Corporation, priority 2008, dated 2014) can be followed below.

Structures can show the parent of a compound that is named as a salt. Where only a bound is given, the exact number is not on record here.

What all share (type): biochemical
The target of assay [1] is T1, Recombinant Human Anaplastic Lymphoma Kinase (Homo sapiens, UniProt Q9UM73).
T1 construct: purchased Invitrogen, Carlsbad, Calif
T1 sequence (Q9UM73 19-1620): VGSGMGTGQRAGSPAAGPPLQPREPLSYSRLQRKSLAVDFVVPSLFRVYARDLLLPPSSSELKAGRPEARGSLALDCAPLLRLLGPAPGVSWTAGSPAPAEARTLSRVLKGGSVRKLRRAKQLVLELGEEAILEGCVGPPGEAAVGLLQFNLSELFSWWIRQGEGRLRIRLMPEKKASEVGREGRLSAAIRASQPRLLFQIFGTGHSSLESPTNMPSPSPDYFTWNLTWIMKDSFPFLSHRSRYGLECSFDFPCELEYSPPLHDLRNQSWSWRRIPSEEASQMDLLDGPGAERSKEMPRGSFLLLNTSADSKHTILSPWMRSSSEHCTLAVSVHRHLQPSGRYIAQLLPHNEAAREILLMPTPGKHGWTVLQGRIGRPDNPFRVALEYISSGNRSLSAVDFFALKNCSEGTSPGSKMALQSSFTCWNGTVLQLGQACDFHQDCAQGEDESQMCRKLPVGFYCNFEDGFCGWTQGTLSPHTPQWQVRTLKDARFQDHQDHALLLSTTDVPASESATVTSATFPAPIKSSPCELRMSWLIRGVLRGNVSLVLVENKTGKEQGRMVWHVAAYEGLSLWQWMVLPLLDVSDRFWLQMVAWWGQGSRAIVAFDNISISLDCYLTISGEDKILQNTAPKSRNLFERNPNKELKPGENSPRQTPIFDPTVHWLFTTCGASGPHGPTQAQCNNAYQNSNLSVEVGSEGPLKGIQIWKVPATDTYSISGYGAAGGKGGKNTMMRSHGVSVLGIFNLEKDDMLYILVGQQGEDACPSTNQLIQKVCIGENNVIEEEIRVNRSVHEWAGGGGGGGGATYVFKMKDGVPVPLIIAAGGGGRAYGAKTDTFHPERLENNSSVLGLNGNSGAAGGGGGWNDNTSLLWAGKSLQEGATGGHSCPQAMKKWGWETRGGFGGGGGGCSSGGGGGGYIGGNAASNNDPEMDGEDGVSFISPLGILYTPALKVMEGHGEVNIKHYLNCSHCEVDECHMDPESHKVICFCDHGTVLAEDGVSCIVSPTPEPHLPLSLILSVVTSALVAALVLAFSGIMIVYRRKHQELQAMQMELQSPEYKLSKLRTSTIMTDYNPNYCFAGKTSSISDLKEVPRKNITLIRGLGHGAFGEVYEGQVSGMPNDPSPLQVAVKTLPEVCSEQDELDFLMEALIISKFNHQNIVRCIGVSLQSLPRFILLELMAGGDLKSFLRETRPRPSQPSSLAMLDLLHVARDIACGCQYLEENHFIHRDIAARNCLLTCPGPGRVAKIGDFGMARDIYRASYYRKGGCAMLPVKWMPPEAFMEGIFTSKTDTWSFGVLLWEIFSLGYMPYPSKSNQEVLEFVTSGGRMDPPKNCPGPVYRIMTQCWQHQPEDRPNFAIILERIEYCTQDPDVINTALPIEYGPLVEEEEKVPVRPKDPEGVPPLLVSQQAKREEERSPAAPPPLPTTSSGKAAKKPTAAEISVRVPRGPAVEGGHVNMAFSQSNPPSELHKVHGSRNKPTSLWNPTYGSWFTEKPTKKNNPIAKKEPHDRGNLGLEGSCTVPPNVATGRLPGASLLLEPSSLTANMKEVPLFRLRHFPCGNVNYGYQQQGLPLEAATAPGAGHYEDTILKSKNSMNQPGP
The experiment in a line: ALK HTRF kinase assay. The note with it: compound at 500 nM or 1 mM; 90 μM ATP. A digest of the protocol: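 Recombinant human ALK phosphorylated a biotinylated synthetic peptide. Phosphotyrosine was detected by TR-FRET between a Eu-labelled anti-phosphotyrosine antibody and streptavidin-allophycocyanin. IC50 values came from fitting signal against inhibitor concentration to a four-parameter logistic equation with variable Hill slope.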
(In TR-FRET formats the signal depends on donor and acceptor labels being close together.)

Assay [2] addresses TYK2 (Homo sapiens, UniProt P29597). The experiment in a line: TYK2 kinase inhibition (Table A1).
Assay [3] addresses T2, human JAK1 (a.a. 837-1142) (Homo sapiens, UniProt P23458).
T2 construct: human JAK1 (a.a. 837-1142); His tag (N); made in house; host or cells: insect cells (baculovirus)
Description: In vitro JAK kinase assay (HTRF, phosphorylation of a biotinylated peptide), JAK1. The note with it: method AA1 (90 μM ATP) or AA2 (1000 μM ATP), not stated per value; read-out: JAK1 IC50. A digest of the protocol: (§1)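 Phosphorylation of a biotinylated peptide by the JAK kinase domain, detected by HTRF with Eu-Py20 and SA-APC. ATP was 90 μM for JAK1, 30 μM for JAK2 and 3 μM for JAK3. Reactions ran 1 h at room temperature and were stopped with EDTA, followed by 40 min antibody binding.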

The target of assay [4] is T3, human JAK2 (a.a. 828-1132) (Homo sapiens, UniProt O60674).
T3 construct: JAK2 (a.a. 828-1132); His tag (N); made in house; host or cells: insect cells (baculovirus)
T3 sequence (O60674 828-1132): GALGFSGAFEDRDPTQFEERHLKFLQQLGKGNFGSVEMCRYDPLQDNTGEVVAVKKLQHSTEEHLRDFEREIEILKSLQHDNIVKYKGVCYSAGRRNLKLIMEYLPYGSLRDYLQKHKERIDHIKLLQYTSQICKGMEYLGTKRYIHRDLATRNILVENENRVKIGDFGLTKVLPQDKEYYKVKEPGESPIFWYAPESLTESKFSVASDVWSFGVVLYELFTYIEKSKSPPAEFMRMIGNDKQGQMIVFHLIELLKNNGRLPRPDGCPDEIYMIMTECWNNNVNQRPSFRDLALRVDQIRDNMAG
Description: In vitro JAK kinase assay (HTRF, phosphorylation of a biotinylated peptide), JAK2. To be noted: method AA1 (30 μM ATP) or AA2 (1000 μM ATP), not stated per value. A digest of the protocol:
as §1

Assay [5] addresses T4, human JAK3 (a.a. 781-1124) (Homo sapiens, UniProt P52333).
T4 construct: JAK3 (a.a. 781-1124); His tag (N); made in house; host or cells: insect cells (baculovirus)
Description: In vitro JAK kinase assay (HTRF, phosphorylation of a biotinylated peptide), JAK3. To be noted: method AA1 (3 μM ATP) or AA2 (1000 μM ATP), not stated per value. A digest of the protocol: as §1

T4 sequence (P52333 781-1124): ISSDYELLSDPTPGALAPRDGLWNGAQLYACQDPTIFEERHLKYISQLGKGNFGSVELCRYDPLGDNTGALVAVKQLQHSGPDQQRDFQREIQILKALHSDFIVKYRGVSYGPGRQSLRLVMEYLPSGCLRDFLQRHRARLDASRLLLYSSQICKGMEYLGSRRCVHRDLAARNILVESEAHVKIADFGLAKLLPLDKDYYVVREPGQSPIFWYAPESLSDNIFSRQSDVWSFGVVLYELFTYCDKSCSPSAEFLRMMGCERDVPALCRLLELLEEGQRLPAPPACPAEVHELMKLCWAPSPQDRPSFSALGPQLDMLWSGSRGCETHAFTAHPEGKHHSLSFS
T2 sequence (P23458 849-1154): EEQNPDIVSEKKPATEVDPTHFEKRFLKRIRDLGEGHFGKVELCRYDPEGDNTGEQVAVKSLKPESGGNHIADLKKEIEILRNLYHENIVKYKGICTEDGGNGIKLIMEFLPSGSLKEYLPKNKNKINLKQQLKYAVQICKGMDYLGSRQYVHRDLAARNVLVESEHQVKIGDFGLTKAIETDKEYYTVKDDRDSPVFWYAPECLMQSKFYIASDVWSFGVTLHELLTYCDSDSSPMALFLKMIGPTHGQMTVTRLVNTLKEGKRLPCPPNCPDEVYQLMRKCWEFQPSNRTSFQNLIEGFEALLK
Chain of TYK2 (P29597 whole entry): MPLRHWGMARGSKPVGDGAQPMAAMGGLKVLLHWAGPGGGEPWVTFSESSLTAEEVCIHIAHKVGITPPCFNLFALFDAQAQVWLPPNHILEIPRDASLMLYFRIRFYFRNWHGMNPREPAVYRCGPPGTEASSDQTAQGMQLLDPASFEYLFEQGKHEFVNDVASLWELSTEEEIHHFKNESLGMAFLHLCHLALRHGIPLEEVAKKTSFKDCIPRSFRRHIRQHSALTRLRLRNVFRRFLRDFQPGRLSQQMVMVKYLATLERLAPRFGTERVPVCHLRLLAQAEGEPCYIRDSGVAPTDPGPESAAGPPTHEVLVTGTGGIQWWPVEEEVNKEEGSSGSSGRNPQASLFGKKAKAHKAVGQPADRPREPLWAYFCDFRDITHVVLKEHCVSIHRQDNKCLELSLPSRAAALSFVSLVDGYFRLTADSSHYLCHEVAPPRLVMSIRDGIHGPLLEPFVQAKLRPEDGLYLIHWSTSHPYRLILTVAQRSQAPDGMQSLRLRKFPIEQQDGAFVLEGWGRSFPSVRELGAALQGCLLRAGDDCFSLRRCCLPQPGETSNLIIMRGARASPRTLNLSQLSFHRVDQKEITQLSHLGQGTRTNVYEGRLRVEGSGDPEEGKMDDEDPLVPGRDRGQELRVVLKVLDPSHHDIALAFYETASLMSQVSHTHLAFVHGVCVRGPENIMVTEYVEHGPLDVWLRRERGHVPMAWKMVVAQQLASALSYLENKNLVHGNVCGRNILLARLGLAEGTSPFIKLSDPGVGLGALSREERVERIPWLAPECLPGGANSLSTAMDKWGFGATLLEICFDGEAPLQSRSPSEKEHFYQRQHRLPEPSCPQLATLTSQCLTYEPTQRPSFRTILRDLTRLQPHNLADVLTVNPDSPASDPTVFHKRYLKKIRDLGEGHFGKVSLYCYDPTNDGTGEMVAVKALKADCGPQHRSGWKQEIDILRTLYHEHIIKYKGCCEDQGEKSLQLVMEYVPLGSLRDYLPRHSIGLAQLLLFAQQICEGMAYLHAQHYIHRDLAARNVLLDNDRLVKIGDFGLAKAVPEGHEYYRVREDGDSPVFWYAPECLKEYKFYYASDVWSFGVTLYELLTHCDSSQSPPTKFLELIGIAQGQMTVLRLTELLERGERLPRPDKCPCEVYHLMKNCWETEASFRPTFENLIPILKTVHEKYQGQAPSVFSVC

Turning to `Cc1oncc1S(=O)(=O)N1CCC(CC(=O)Nc2ccc3cc2CCc2cncc(c2)Nc2ncc(Cl)c(n2)N3)CC1` [Example A200, N-[6-Chloro-2,4,8,18,22-pentaazatetracyclo[14.3.1.1(3,7).1(9,13)]docosa-1(20),3(22),4,6,9(21),10,12,16,18-nonaen-12-yl]-2-{1-[(5-methylisoxazol-4-yl)sulfonyl]piperidin-4-yl}acetamide bis(trifluoroacetate)], the “ALK % of inhibition at a concentration of 500 nM or 1 mM” value (“ALK % of inhibition” for short) in assay [1] is 25%. The IC50 in assay [2] is above 200 nM; in assay [3], 8.5 nM; in assay [4], 101 nM; in assay [5] it was above 200 nM.

`O=C(CC1CCN(S(=O)(=O)c2ccco2)CC1)Nc1ccc2cc1CCc1cncc(c1)Nc1ncc(Cl)c(n1)N2` [Example A201, N-[6-Chloro-2,4,8,18,22-pentaazatetracyclo[14.3.1.1(3,7).1(9,13)]docosa-1(20),3(22),4,6,9(21),10,12,16,18-nonaen-12-yl]-2-[1-(2-furylsulfonyl)piperidin-4-yl]acetamide bis(trifluoroacetate)]: the “ALK % of inhibition” value in assay [1] was 31%. Besides, the 50% inhibitory concentration (IC50) in assay [2] is 150 nM; in assay [3], 9.3 nM; in assay [4], 100 nM; in assay [5], above 200 nM.

With `O=C(CC1CCN(S(=O)(=O)c2cccnc2)CC1)Nc1ccc2cc1CCc1cncc(c1)Nc1ncc(Cl)c(n1)N2` [Example A202, N-[6-Chloro-2,4,8,18,22-pentaazatetracyclo[14.3.1.1(3,7).1(9,13)]docosa-1(20),3(22),4,6,9(21),10,12,16,18-nonaen-12-yl]-2-[1-(pyridin-3-ylsulfonyl)piperidin-4-yl]acetamide tris(trifluoroacetate)], in assay [1], the “ALK % of inhibition” value turned out to be 42%. For the same molecule, the IC50 in assay [2] was 150 nM; in assay [3] it was 0.7 nM; in assay [4], 14 nM; in assay [5], above 200 nM.

With `O=C(CC1CCN(C(=O)c2ccc(F)cc2)CC1)Nc1ccc2cc1CCc1cccc(c1)Nc1ncc(Cl)c(n1)N2` [Example A203, N-[6-Chloro-2,4,8,22-tetraazatetracyclo[14.3.1.1(3,7).1(9,13)]docosa-1(20),3(22),4,6,9(21),10,12,16,18-nonaen-12-yl]-2-[1-(4-fluorobenzoyl)piperidin-4-yl]acetamide trifluoroacetate], the “ALK % of inhibition” value in assay [1] came out at 38%. The IC50 in assay [2] is above 200 nM; in assay [3], 38 nM; in assay [4] it was 150 nM; in assay [5], above 200 nM.

`O=C(CC1CCN(C(=O)c2ccc(F)cc2F)CC1)Nc1ccc2cc1CCc1cccc(c1)Nc1ncc(Cl)c(n1)N2` [Example A204, N-[6-Chloro-2,4,8,22-tetraazatetracyclo[14.3.1.1(3,7).1(9,13)]docosa-1(20),3(22),4,6,9(21),10,12,16,18-nonaen-12-yl]-2-[1-(2,4-difluorobenzoyl)piperidin-4-yl]acetamide trifluoroacetate]: the “ALK % of inhibition” value in assay [1] amounted to 28%. Further, the IC50 in assay [2] is above 200 nM; in assay [3], 20 nM; in assay [4] it was 100 nM; in assay [5] it was above 200 nM.

Turning to `O=C(CC1CCN(S(=O)(=O)c2ccccc2)CC1)Nc1ccc2cc1CCc1cccc(c1)Nc1ncc(Cl)c(n1)N2` [Example A205, N-[6-Chloro-2,4,8,22-tetraazatetracyclo[14.3.1.1(3,7).1(9,13)]docosa-1(20),3(22),4,6,9(21),10,12,16,18-nonaen-12-yl]-2-[1-(phenylsulfonyl)piperidin-4-yl]acetamide trifluoroacetate], the “ALK % of inhibition” value in assay [1] was 23%. The IC50 in assay [2] was above 200 nM; in assay [3], 52 nM; in assay [4], 199 nM; in assay [5], above 200 nM.

Consider `COc1ccc(S(=O)(=O)N2CCC(CC(=O)Nc3ccc4cc3CCc3cccc(c3)Nc3ncc(Cl)c(n3)N4)CC2)cc1` [Example A207, N-[6-Chloro-2,4,8,22-tetraazatetracyclo[14.3.1.1(3,7).1(9,13)]docosa-1(20),3(22),4,6,9(21),10,12,16,18-nonaen-12-yl]-2-{1-[(4-methoxyphenyl)sulfonyl]piperidin-4-yl}acetamide trifluoroacetate], for which, in assay [1], the “ALK % of inhibition” value turned out to be 23%. The half-inhibitory concentration (IC50) was above 200 nM in assay [2], 85 nM in assay [3], 199 nM in assay [4] and above 200 nM in assay [5].

For the molecule `N#Cc1ccccc1S(=O)(=O)N1CCC(CC(=O)Nc2ccc3cc2CCc2cccc(c2)Nc2ncc(Cl)c(n2)N3)CC1` [Example A208, N-[6-Chloro-2,4,8,22-tetraazatetracyclo[14.3.1.1(3,7).1(9,13)]docosa-1(20),3(22),4,6,9(21),10,12,16,18-nonaen-12-yl]-2-{1-[(2-cyanophenyl)sulfonyl]piperidin-4-yl}acetamide trifluoroacetate], the “ALK % of inhibition” value in assay [1] was determined as 17%. Moreover, the 50% inhibitory concentration (IC50) in assay [2] is 150 nM; in assay [3], 1.6 nM; in assay [4], 41 nM; in assay [5], above 200 nM.

Take `N#Cc1ccc(S(=O)(=O)N2CCC(CC(=O)Nc3ccc4cc3CCc3cccc(c3)Nc3ncc(Cl)c(n3)N4)CC2)cc1` [Example A209, N-[6-Chloro-2,4,8,22-tetraazatetracyclo[14.3.1.1(3,7).1(9,13)]docosa-1(20),3(22),4,6,9(21),10,12,16,18-nonaen-12-yl]-2-{1-[(4-cyanophenyl)sulfonyl]piperidin-4-yl}acetamide trifluoroacetate]: the “ALK % of inhibition” value in assay [1] came to 19%. Further, the IC50 is above 200 nM in assay [2], 60 nM in assay [3], 120 nM in assay [4] and above 200 nM in assay [5].

In the case of `Cc1oncc1S(=O)(=O)N1CCC(CC(=O)Nc2ccc3cc2CCc2cccc(c2)Nc2ncc(Cl)c(n2)N3)CC1` [Example A210, N-[6-Chloro-2,4,8,22-tetraazatetracyclo[14.3.1.1(3,7).1(9,13)]docosa-1(20),3(22),4,6,9(21),10,12,16,18-nonaen-12-yl]-2-{1-[(5-methylisoxazol-4-yl)sulfonyl]piperidin-4-yl}acetamide trifluoroacetate], in assay [1], the “ALK % of inhibition” value was determined as 20%. Besides, the IC50 in assay [2] is above 200 nM; in assay [3], 35 nM; in assay [4], 90 nM; in assay [5], above 200 nM.

For the molecule `O=C(CC1CCN(S(=O)(=O)c2ccco2)CC1)Nc1ccc2cc1CCc1cccc(c1)Nc1ncc(Cl)c(n1)N2` [Example A211, N-[6-Chloro-2,4,8,22-tetraazatetracyclo[14.3.1.1(3,7).1(9,13)]docosa-1(20),3(22),4,6,9(21),10,12,16,18-nonaen-12-yl]-2-[1-(2-furylsulfonyl)piperidin-4-yl]acetamide trifluoroacetate], the “ALK % of inhibition” value in assay [1] is on record as 37%. For the same molecule, the IC50 was 150 nM in assay [2], 12 nM in assay [3], 66 nM in assay [4] and above 200 nM in assay [5].

Take `O=C(CC1CCN(S(=O)(=O)c2cccnc2)CC1)Nc1ccc2cc1CCc1cccc(c1)Nc1ncc(Cl)c(n1)N2` [Example A212, N-[6-Chloro-2,4,8,22-tetraazatetracyclo[14.3.1.1(3,7).1(9,13)]docosa-1(20),3(22),4,6,9(21),10,12,16,18-nonaen-12-yl]-2-[1-(pyridin-3-ylsulfonyl)piperidin-4-yl]acetamide bis(trifluoroacetate)]: in assay [1], the “ALK % of inhibition” value is recorded as 45%. Besides, the half-maximal inhibitory concentration (IC50) is 85 nM in assay [2], 1.3 nM in assay [3], 8.6 nM in assay [4] and above 200 nM in assay [5].

For the molecule `O=C(CC1CCN(C(=O)c2cnoc2C2CC2)CC1)Nc1ccc2cc1CCc1cncc(c1)Nc1ncc(Cl)c(n1)N2` [Example A213, N-[6-Chloro-2,4,8,18,22-pentaazatetracyclo[14.3.1.1(3,7).1(9,13)]docosa-1(20),3(22),4,6,9(21),10,12,16,18-nonaen-12-yl]-2-{1-[(5-cyclopropylisoxazol-4-yl)carbonyl]piperidin-4-yl}acetamide bis(trifluoroacetate)], the “ALK % of inhibition” value in assay [1] stood at 27%. Also, the IC50 in assay [2] is above 200 nM; in assay [3] it was 58 nM; in assay [4], above 200 nM; in assay [5] it was above 200 nM.

With `CC(C)c1cc(C(=O)N2CCC(CC(=O)Nc3ccc4cc3CCc3cncc(c3)Nc3ncc(Cl)c(n3)N4)CC2)no1` [Example A214, N-[6-Chloro-2,4,8,18,22-pentaazatetracyclo[14.3.1.1(3,7).1(9,13)]docosa-1(20),3(22),4,6,9(21),10,12,16,18-nonaen-12-yl]-2-{1-[(5-isopropylisoxazol-3-yl)carbonyl]piperidin-4-yl}acetamide bis(trifluoroacetate)], the “ALK % of inhibition” value in assay [1] is reported as 15%. Further, the IC50 in assay [2] was above 200 nM; in assay [3], 50 nM; in assay [4], above 200 nM; in assay [5], above 200 nM.

As a reminder, the IC50 is the concentration that gives 50% inhibition.
